Patent US12637423B2, “Aziridinyl functional compound” (priority 2020, dated 2026)

Tests used:
[1] = tested on: biomarkers Bscl2-GFP and Rtkn-GFP in mES reporter cell lines; test: ToxTracker assay, overall genotoxicity conclusion; format: cell-based, mouse; conditions: Bscl2-GFP and Rtkn-GFP at 10, 25 and 50% cytotoxicity, absence and presence of rat S9
Procedure: (§1) This methodology uses a two step-approach.
(§2) Metabolic was evaluated by addition of S9 liver extract. […] Only GFP expression in intact single cells is determined.

[2] = tested on: Rtkn-GFP mouse embryonic stem (mES) reporter cell line; test: ToxTracker assay, Rtkn-GFP DNA damage reporter; format: cell-based
Procedure: as §1, §2

[3] = tested on: Bscl2-GFP mouse embryonic stem (mES) reporter cell line; test: ToxTracker assay, Bscl2-GFP DNA damage reporter; format: cell-based
Procedure: as §1, §2

[4] = with S9 rat liver extract, at 10% cytotoxicity, 3 h exposure, 24 h recovery
[5] = with S9 rat liver extract, at 25% cytotoxicity, 3 h exposure, 24 h recovery
[6] = with S9 rat liver extract, at 50% cytotoxicity, 3 h exposure, 24 h recovery
[7] = without S9 rat liver extract, at 10% cytotoxicity, 24 h exposure
[8] = without S9 rat liver extract, at 25% cytotoxicity, 24 h exposure
[9] = without S9 rat liver extract, at 50% cytotoxicity, 24 h exposure

C=CC(=O)OCCOC(=O)NCCCCCCn1c(=O)n(CCCCCCNC(=O)OCCOC(=O)C=C)c(=O)n(CCCCCCNC(=O)OC(C)CN2CC2C)c1=O (stereo not shown) [Compound 1]
1.2 fold: Bscl 2 GFP reporter induction level [3, 4] | Bscl 2 GFP reporter induction level [3, 5] | Bscl 2 GFP reporter induction level [3, 6] | Bscl 2 GFP reporter induction level [3, 8]
1.0 fold: Rtkn GFP reporter induction level [2, 4] | Rtkn GFP reporter induction level [2, 5] | Rtkn GFP reporter induction level [2, 6] | Rtkn GFP reporter induction level [2, 7] | Rtkn GFP reporter induction level [2, 8] | Rtkn GFP reporter induction level [2, 9] | Bscl 2 GFP reporter induction level [3, 7]
non-genotoxic: Genotoxicity conclusion (ToxTracker) [1]
1.3 fold: Bscl 2 GFP reporter induction level [3, 9]
